Reference: patent US20250234824A1, “MARKERS ASSOCIATED WITH S[…]” (Syngenta Crop Protection AG, priority 2022, published 2025)

Test system: maize haploids
Assay: Colchicine doubling treatment of BC3 haploids, pollen and kernel phenotypes in the field
Format: in vivo
Settings: for Average Number of Days of Pollen per Plant / Average Number of Kernels per Plant / Percent of Plants with Ears >5 kernels: colchicine-treated haploids
From the text: Genotyping was used to identify heterozygotes at SCD-QTL1, and those materials were then crossed by a haploid inducer, embryos isolated from the immature ears, and haploids regenerated for transplant into the field. Immediately after isolation, embryos from each of the 17 BC3 populations were split into 2 treatment groups. […] All lines were planted across three replications of the trial over the course of approximately 6 months, and the data was pooled for analysis.

[1] = BC3 recurrent parent Line 1, SCD Allele
[2] = BC3 recurrent parent Line 1, Unfavorable Allele
[3] = BC3 recurrent parent Line 2, SCD Allele
[4] = BC3 recurrent parent Line 2, Unfavorable Allele
[5] = BC3 recurrent parent Line 3, SCD Allele
[6] = BC3 recurrent parent Line 3, Unfavorable Allele
[7] = BC3 recurrent parent Line 4, SCD Allele
[8] = BC3 recurrent parent Line 4, Unfavorable Allele
[9] = BC3 recurrent parent Line 5, SCD Allele
[10] = BC3 recurrent parent Line 5, Unfavorable Allele
[11] = BC3 recurrent parent Line 6, SCD Allele
[12] = BC3 recurrent parent Line 6, Unfavorable Allele
[13] = BC3 recurrent parent Line 7, SCD Allele
[14] = BC3 recurrent parent Line 7, Unfavorable Allele
[15] = BC3 recurrent parent Line 8, SCD Allele
[16] = BC3 recurrent parent Line 8, Unfavorable Allele
[17] = BC3 recurrent parent Line 9, SCD Allele
[18] = BC3 recurrent parent Line 9, Unfavorable Allele
[19] = BC3 recurrent parent Line 10, SCD Allele
[20] = BC3 recurrent parent Line 10, Unfavorable Allele
[21] = BC3 recurrent parent Line 11, SCD Allele
[22] = BC3 recurrent parent Line 11, Unfavorable Allele
[23] = BC3 recurrent parent Line 12, SCD Allele
[24] = BC3 recurrent parent Line 12, Unfavorable Allele
[25] = BC3 recurrent parent Line 13, SCD Allele
[26] = BC3 recurrent parent Line 13, Unfavorable Allele
[27] = BC3 recurrent parent Line 14, SCD Allele
[28] = BC3 recurrent parent Line 14, Unfavorable Allele
[29] = BC3 recurrent parent Line 15, SCD Allele
[30] = BC3 recurrent parent Line 15, Unfavorable Allele
[31] = BC3 recurrent parent Line 16, SCD Allele
[32] = BC3 recurrent parent Line 16, Unfavorable Allele
[33] = BC3 recurrent parent Line 17, SCD Allele
[34] = BC3 recurrent parent Line 17, Unfavorable Allele

For `COc1cc2c(c(OC)c1OC)-c1ccc(OC)c(=O)cc1[C@@H](NC(C)=O)CC2` [Colchicine, colchicine], the “Average Number of Days of Pollen per Plant” value [1] was 3.1 days, the “Average Number of Kernels per Plant” value [1] was 23.8 kernels and the “Percent of Plants with Ears >5 kernels” value [1] was 53.9%. For the same molecule, the “Average Number of Days of Pollen per Plant” value [2] was 2.4 days, the “Average Number of Kernels per Plant” value [2] was 13.5 kernels and the “Percent of Plants with Ears >5 kernels” value [2] was 26.6%. The “Average Number of Days of Pollen per Plant” value [3] was 1.72 days, the “Average Number of Kernels per Plant” value [3] was 5 kernels and the “Percent of Plants with Ears >5 kernels” value [3] was 12.0%. The “Average Number of Days of Pollen per Plant” value [4] was 2.35 days, the “Average Number of Kernels per Plant” value [4] was 9.62 kernels and the “Percent of Plants with Ears >5 kernels” value [4] was 13.5%. For the same molecule, the “Average Number of Days of Pollen per Plant” value [5] was 1.76 days, the “Average Number of Kernels per Plant” value [5] was 7.62 kernels and the “Percent of Plants with Ears >5 kernels” value [5] was 6.9%. The “Average Number of Days of Pollen per Plant” value [6] was 1.45 days, the “Average Number of Kernels per Plant” value [6] was 9.03 kernels and the “Percent of Plants with Ears >5 kernels” value [6] was 9.1%. The “Average Number of Days of Pollen per Plant” value [7] was 0.04 days, the “Average Number of Kernels per Plant” value [7] was 0 kernels and the “Percent of Plants with Ears >5 kernels” value [7] was 0.0%. For the same molecule, the “Average Number of Days of Pollen per Plant” value [8] was 0.57 days, the “Average Number of Kernels per Plant” value [8] was 7.1 kernels and the “Percent of Plants with Ears >5 kernels” value [8] was 13.2%. For the same molecule, the “Average Number of Days of Pollen per Plant” value [9] was 2.34 days, the “Average Number of Kernels per Plant” value [9] was 2.31 kernels and the “Percent of Plants with Ears >5 kernels” value [9] was 3.1%. The “Average Number of Days of Pollen per Plant” value [10] was 2.19 days, the “Average Number of Kernels per Plant” value [10] was 4.88 kernels and the “Percent of Plants with Ears >5 kernels” value [10] was 7.6%. The “Average Number of Days of Pollen per Plant” value [11] was 1.675 days, the “Average Number of Kernels per Plant” value [11] was 11.23 kernels and the “Percent of Plants with Ears >5 kernels” value [11] was 25.0%. The “Average Number of Days of Pollen per Plant” value [12] was 2.01 days, the “Average Number of Kernels per Plant” value [12] was 19.09 kernels and the “Percent of Plants with Ears >5 kernels” value [12] was 27.2%. For the same molecule, the “Average Number of Days of Pollen per Plant” value [13] was 1.58 days, the “Average Number of Kernels per Plant” value [13] was 53.5 kernels and the “Percent of Plants with Ears >5 kernels” value [13] was 37.9%. For the same molecule, the “Average Number of Days of Pollen per Plant” value [14] was 1.298 days, the “Average Number of Kernels per Plant” value [14] was 54.18 kernels and the “Percent of Plants with Ears >5 kernels” value [14] was 29.9%. For the same molecule, the “Average Number of Days of Pollen per Plant” value [15] was 1.72 days, the “Average Number of Kernels per Plant” value [15] was 37.34 kernels and the “Percent of Plants with Ears >5 kernels” value [15] was 31.1%. For the same molecule, the “Average Number of Days of Pollen per Plant” value [16] was 1.466 days, the “Average Number of Kernels per Plant” value [16] was 26.17 kernels and the “Average Number of Days of Pollen per Plant” value [17] was 2.58 days. The “Average Number of Kernels per Plant” value [17] was 27.9 kernels, the “Average Number of Days of Pollen per Plant” value [18] was 2.51 days and the “Average Number of Kernels per Plant” value [18] was 24.067 kernels. The “Percent of Plants with Ears >5 kernels” value [18] was 29.3%, the “Average Number of Days of Pollen per Plant” value [19] was 1.12 days and the “Average Number of Kernels per Plant” value [19] was 23.17 kernels. The “Average Number of Days of Pollen per Plant” value [20] was 1.005 days, the “Average Number of Kernels per Plant” value [20] was 13.75 kernels and the “Percent of Plants with Ears >5 kernels” value [20] was 26.4%. The “Average Number of Days of Pollen per Plant” value [21] was 1.09 days, the “Average Number of Kernels per Plant” value [21] was 4.97 kernels and the “Percent of Plants with Ears >5 kernels” value [21] was 8.7%. The “Average Number of Days of Pollen per Plant” value [22] was 1.2 days, the “Average Number of Kernels per Plant” value [22] was 18.11 kernels and the “Percent of Plants with Ears >5 kernels” value [22] was 17.5%. The “Average Number of Days of Pollen per Plant” value [23] was 1.25 days, the “Average Number of Kernels per Plant” value [23] was 19.56 kernels and the “Percent of Plants with Ears >5 kernels” value [23] was 28.5%. For the same molecule, the “Average Number of Days of Pollen per Plant” value [24] was 0.96 days, the “Average Number of Kernels per Plant” value [24] was 22.12 kernels and the “Percent of Plants with Ears >5 kernels” value [24] was 21.3%. The “Average Number of Days of Pollen per Plant” value [25] was 1.45 days, the “Average Number of Kernels per Plant” value [25] was 32.5 kernels and the “Percent of Plants with Ears >5 kernels” value [25] was 25.8%. The “Average Number of Days of Pollen per Plant” value [26] was 1.33 days, the “Average Number of Kernels per Plant” value [26] was 24.5 kernels and the “Percent of Plants with Ears >5 kernels” value [26] was 24.7%. The “Average Number of Days of Pollen per Plant” value [27] was 1.28 days, the “Average Number of Kernels per Plant” value [27] was 31 kernels and the “Percent of Plants with Ears >5 kernels” value [27] was 29.9%. For the same molecule, the “Average Number of Days of Pollen per Plant” value [28] was 1.1 days, the “Average Number of Kernels per Plant” value [28] was 40.57 kernels and the “Percent of Plants with Ears >5 kernels” value [28] was 26.2%. For the same molecule, the “Average Number of Days of Pollen per Plant” value [29] was 2.66 days, the “Average Number of Kernels per Plant” value [29] was 45.47 kernels and the “Percent of Plants with Ears >5 kernels” value [29] was 64.9%. For the same molecule, the “Average Number of Days of Pollen per Plant” value [30] was 2.81 days, the “Average Number of Kernels per Plant” value [30] was 72.9 kernels and the “Percent of Plants with Ears >5 kernels” value [30] was 72.2%. The “Average Number of Days of Pollen per Plant” value [31] was 1.65 days, the “Average Number of Kernels per Plant” value [31] was 31.56 kernels and the “Average Number of Days of Pollen per Plant” value [32] was 1.67 days. The “Average Number of Kernels per Plant” value [32] was 28.03 kernels, the “Percent of Plants with Ears >5 kernels” value [32] was 37.6% and the “Average Number of Days of Pollen per Plant” value [33] was 2.63 days. The “Average Number of Kernels per Plant” value [33] was 52.86 kernels, the “Percent of Plants with Ears >5 kernels” value [33] was 49.1% and the “Average Number of Days of Pollen per Plant” value [34] was 2.51 days. For the same molecule, the “Average Number of Kernels per Plant” value [34] was 58.48 kernels, the “Percent of Plants with Ears >5 kernels” value [34] was 50.4% and the “pollen and kernel production” value (colchicine-treated groups compared with SCD-QTL1 alone, 17 BC3 populations pooled) was “performed overall better in both pollen and kernel production than the SCD-QTL1 alone”.
